Measured values as given in ChEMBL document CHEMBL5634186, “Structure-Activity Relationship Study of Biselyngbyolide B Reveals Mitochondrial Fission-Induced Cytotoxicity in Cancer” (ACS Med Chem Lett, 2024).

How the values were obtained:
[1] = test system: HCT-116; assay: Anticancer activity against human HCT-116 cells assessed as inhibition of cell viability incubated for 16 hrs by MTT assay; type: functional, cell-based; conditions: HCT-116, 16 h
[2] = Cytotoxicity against HEK293 cells assessed as reduction in cell viability incubated for 16 hrs by MTT assay; type: toxicity, cell-based; conditions: human

IC50 [1] | SMILES | IC50 at 16 h [2]
6.9 µM | C/C=C/C/C(C)=C\[C@H]1C/C=C/C=C/C[C@H](C)/C=C(\C)[C@@H](O)C/C=C/[C@@H](O)CC(=O)O1 | 21.6 µM
8.1 µM | CCCCC[C@H]1C/C=C/C=C/C[C@H](C)/C=C(\C)[C@@H](OC)C/C=C/[C@@H](O)CC(=O)O1 | 14.3 µM
6.8 µM | C/C=C/C/C(C)=C\[C@H]1C/C=C/C=C/CC/C=C(\C)[C@@H](OC)C/C=C/[C@@H](O)CC(=O)O1 | 12.5 µM
